Read-outs that look alike come from different tables or passages of the source.
Legend:
[1] = test system: cortical inhibitory networks; experiment: Paired-pulse whisker stimulation (paired-pulse ratio, cortical inhibitory function) in awake mice; type: in vivo, mouse; conditions: for Paired-pulse ratio (PPR): awake mice
Method: (§1) Recordings were analyzed offline using pClamp 10.2.
Next, it was investigated how cortical ammonia toxicity leads to neurological dysfunction and seizures. […] Neurobiol. […] The whisker stimulation paradigm elicits two successive field excitatory post-synaptic potentials (fEPSP), where the second fEPSP has lower amplitude due to activation of cortical inhibitory networks (quantified by a paired-pulse ratio (PPR)<1).

NKCC1 [2] = conditions: NKCC1 knock-out Slc12a2^−/−
Method: as §1
(§2) Because EGABA is heavily dependent on chloride transporters, the diuretic bumetanide was next tested, a highly specific NKCC1 inhibitor used in clinical practice to treat heart failure. Hannaert et al., “Rat NKCC2/NKCC1 Cotransporter Selectivity For Loop Diuretic Drugs,” Naunyn Schmiedebergs Arch. Pharmacol. 365:193-199 (2002); Dzhala et al., “NKCC1 Transporter Facilitates Seizures in the Developing Brain,” Nat. […] To ensure the molecular specificity of bumetanide, gramicidin-perforated patch recordings were also performed in conditional NKCC1 knock-out (Slc12a2^−/−) and wild-type littermates (Slc12a2′^+/+).

NKCC1 [3] = molecular target: NKCC1 (Mus musculus, UniProt P55012); conditions: wild-type Slc12a2^+/+
Chain of NKCC1 (Mus musculus, UniProt P55012) (P55012 whole entry): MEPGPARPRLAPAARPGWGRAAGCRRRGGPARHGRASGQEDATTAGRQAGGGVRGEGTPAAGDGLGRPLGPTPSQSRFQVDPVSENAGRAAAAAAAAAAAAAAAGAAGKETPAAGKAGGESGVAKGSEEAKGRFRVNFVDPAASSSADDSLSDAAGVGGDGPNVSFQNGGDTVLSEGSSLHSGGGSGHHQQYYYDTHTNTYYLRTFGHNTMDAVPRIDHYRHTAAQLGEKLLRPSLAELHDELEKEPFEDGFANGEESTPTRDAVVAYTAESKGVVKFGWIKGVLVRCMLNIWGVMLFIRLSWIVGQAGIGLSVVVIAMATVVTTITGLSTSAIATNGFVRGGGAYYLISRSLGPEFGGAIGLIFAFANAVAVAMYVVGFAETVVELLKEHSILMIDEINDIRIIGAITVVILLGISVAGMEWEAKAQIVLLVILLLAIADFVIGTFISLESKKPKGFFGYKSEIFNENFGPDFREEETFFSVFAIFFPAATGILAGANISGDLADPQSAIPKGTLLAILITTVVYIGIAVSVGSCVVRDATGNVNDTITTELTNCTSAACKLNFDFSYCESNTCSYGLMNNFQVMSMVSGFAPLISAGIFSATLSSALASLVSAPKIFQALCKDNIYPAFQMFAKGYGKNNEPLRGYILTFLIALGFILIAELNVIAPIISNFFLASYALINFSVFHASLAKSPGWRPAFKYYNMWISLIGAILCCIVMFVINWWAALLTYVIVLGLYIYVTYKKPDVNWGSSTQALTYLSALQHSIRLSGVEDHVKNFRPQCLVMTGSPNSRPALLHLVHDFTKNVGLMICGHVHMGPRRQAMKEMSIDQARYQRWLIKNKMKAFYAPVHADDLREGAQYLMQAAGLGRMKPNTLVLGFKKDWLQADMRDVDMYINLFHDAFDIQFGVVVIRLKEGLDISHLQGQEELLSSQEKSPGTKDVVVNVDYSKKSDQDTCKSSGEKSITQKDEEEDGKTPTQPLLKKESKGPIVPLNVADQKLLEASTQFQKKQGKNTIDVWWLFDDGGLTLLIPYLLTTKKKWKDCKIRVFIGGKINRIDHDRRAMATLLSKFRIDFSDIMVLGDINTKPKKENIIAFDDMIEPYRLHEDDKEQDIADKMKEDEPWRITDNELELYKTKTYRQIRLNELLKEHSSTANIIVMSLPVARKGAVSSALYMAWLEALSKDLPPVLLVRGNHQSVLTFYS
Method: as §1, §2

Na^+—K^+-ATPase (NKA) = test system: Na^+—K^+-ATPase (NKA)
Method: Cell Culture Assays—Cultured neocortical astrocytes were prepared from P1-2 mouse and rat pups as previously described. Wang et al., “Astrocytes Modulate Neural Network Activity by Ca(2)(+)-Dependent Uptake of Extracellular K(+),” Science Signaling 5:ra26 (2012); Lin et al., “Gap-Junction-Mediated Propagation and Amplification of Cell Injury,” Nat. Neurosci. 1:494-500 (1998), which are hereby incorporated by reference in their entirety. For ^86Rb^+ experiments the cultures were incubated for 10 minutes±ouabain (1 mM). The potassium analogue ^86Rb^+ was then added to each well plate for 15 minutes (1 μCi, Perkin Elmer). The reaction was stopped by placing the cells on ice and washed with ice-cold aCSF. The cells were lysed and ^86Rb^+ uptake quantified by liquid scintillation counting (Beckman Coulter). For Na^+—K^+-ATPase activity, astrocyte cultures were utilized as previously described, and enzyme activity was quantified using the malachite green reaction (Sigma) and analyzed using spectrophotometry. Anupama et al. “Comparison of Na—K ATPase Activity in Rat Brain Synaptosome Under Various Conditions,” Neurochem. Int. 33:283-286 (1998), which is hereby incorporated by reference in its entirety.

astrocytes [4] = conditions: awake Otc^spf-ash mice, ammonia load
Method: Two-Photon Laser Scanning Microscopy (2PLSM)—A Mai Tai laser (SpectraPhysics) attached to a confocal scanning system (Fluoview 300, Olympus) and an upright microscope (IX51W) was used. Briefly, volume changes and calcium activity were imaged in cortex 100 μm below the pial surface, as described previously, using a 60× (1.1 NA) and a 20× (0.95 NA) lens, respectively. For in vivo volumetry xyzt image series were collected (z-step 1.5 μm, every 5 minutes) with acquisition time<20 seconds and laser power<40 mW. For in vivo calcium imaging, dual channel (rhod-2 and eGFP) frames were collected at 0.2 or 2 Hz. A low sampling rate and <20 mW laser were used to avoid photo damage. […] Therefore, each animal was tested for optimal loading by performing whisker stimulation, to verify a physiological calcium response. Wang et al., “Astrocytic Ca^2+ Signalling Evoked by Sensory Stimulation In Vivo,” Nat. Neurosci. 9:816-823 (2006), which is hereby incorporated by reference in its entirety. A calcium transient was defined as an event where the relative ratio between the rhod-2 and eGFP signal intensities (ΔF/F0) was >2 standard deviations […] from baseline. Beginning and end were defined as ΔF/F0>0.5 π and <0.5 π respectively. Amplitude was taken as the peak ΔF/F0 in this interval. […] Volume and calcium recordings were analyzed using previously described custom-made software (MatLab Inc.).

awake mice = experiment: Myoclonic event (ME) frequency on EEG in awake mice; type: in vivo, mouse
Description: Electrophysiological Recordings—In vivo recordings were obtained from layer II somatosensory cortex. In situ recordings were obtained from layer II in coronal cortical slices prepared from P21-30 mice. ISMs of K^+ and NH4^+ were pulled from double-barreled pipette glass (PB150-6, WPI) with a tip of 1-3 μm. The pipettes were silanized (coated) with dimethylsilane I (Fluka, Sigma) and filled with either K^+ ionophore I cocktail B (Fluka, selectivity coefficient −1.8 log(K^+/NH4^+)) or NH4+ ionophore I cocktail B (Fluka, −0.9 log(NH4^+/K^+)). […] Electroencephalogram (EEG) signals were externally filtered at 6 Hz (Filter Butterworth Model by Encore, Axopatch 200B by Axon Instruments), band pass filtered at 1-100 Hz and digitized (Digidata 1440A by Axon Instruments). Ion-sensitive microelectrode (ISM) signals were amplified (FD223a by WPI), externally filtered and digitized as above, and reference field potential traces were subtracted. In selected experiments, wireless electromyogram (EMG) and electroencephalogram (EEG) electrodes were implanted (DSI Physiotel®), and an extracellular microelectrode was placed in the thalamus (ventrobasal complex). Recordings were analyzed offline using pClamp 10.2. Myoclonic events (ME) were defined on the EEG as single or multiple 3-9 Hz polyspike and wave discharges (SWD) of 0.2-2 second duration associated with myoclonic jerks determined by video recording, EMG or direct observation.

[5] = 1H-NMR brain amino acid concentrations; type: in vivo, mouse; conditions: 30 minutes after administration, mean±SEM
Method: ^1H-NMR Spectroscopy—Mice were anesthetized using 1.5% isoflurane and decapitated. Forebrains (whole brain minus cerebellum/brainstem) were quickly extracted, frozen in liquid nitrogen, and homogenized in 7.5 mL 12% PCA at 0° C. using a micro-sonicator. The homogenate was centrifuged at 25,000 G for 15 minutes, and the supernatants were neutralized to pH 7.0 with KOH over an ice bath. A further 15 minute centrifugation (25,000 G) separated the resultant KClO4, and the supernatant was lyophilized before being reconstituted with 0.65 ml D2O. ^1H-NMR spectra were acquired using a 600 mHz Varian Unity NOVA spectrometer equipped with a triple-axis gradient HCN probe (standard room temperature). Signals were acquired following a 90° pulse with a spectral width of 7200 Hz and 32K data points. The time between pulses was 15 seconds and 64 signals were averaged for each spectrum. The sample temperature was 25° C. Integrals of the relevant peaks were converted to μmol/gram wet-weight and normalized NAA (methyl) to increase inter-sample consistency.

astrocytes [6] = conditions: n = 52 cells, mean±SEM; for Astrocyte calcium transient Freq.: awake Otc^spf-ash mice, 100 μm below pial surface
Description: Body temperature was maintained with a heating pad.
Two-Photon Laser Scanning Microscopy (2PLSM)—A Mai Tai laser (SpectraPhysics) attached to a confocal scanning system (Fluoview 300, Olympus) and an upright microscope (IX51W) was used. Briefly, volume changes and calcium activity were imaged in cortex 100 μm below the pial surface, as described previously, using a 60× (1.1 NA) and a 20× (0.95 NA) lens, respectively. For in vivo volumetry xyzt image series were collected (z-step 1.5 μm, every 5 minutes) with acquisition time<20 seconds and laser power<40 mW. For in vivo calcium imaging, dual channel (rhod-2 and eGFP) frames were collected at 0.2 or 2 Hz. A low sampling rate and <20 mW laser were used to avoid photo damage. […] Therefore, each animal was tested for optimal loading by performing whisker stimulation, to verify a physiological calcium response. Wang et al., “Astrocytic Ca^2+ Signalling Evoked by Sensory Stimulation In Vivo,” Nat. Neurosci. 9:816-823 (2006), which is hereby incorporated by reference in its entirety. A calcium transient was defined as an event where the relative ratio between the rhod-2 and eGFP signal intensities (ΔF/F0) was >2 standard deviations […] from baseline. Beginning and end were defined as ΔF/F0>0.5 π and <0.5 π respectively. Amplitude was taken as the peak ΔF/F0 in this interval. For in situ volumentric imaging acute cortical slices were loaded with texas red hydrazide (1.5 μM, a fixable sulforhodamine 101 derivative) in aCSF for 50 minutes. Volume and calcium recordings were analyzed using previously described custom-made software (MatLab Inc.).
Data in Table 2 is from analysis of 2PLSM xyt series, where calcium indicator rhod-2 was used to detect astrocyte calcium transients 100 μm below the pial surface. Data are shown as mean±SEM.

Otc^spf-ash mice [7] = experiment: NH4+ and K+ ion-sensitive microelectrode (ISM) recordings from cortex of awake mice; conditions: mean±SEM
Method: Body temperature was maintained with a heating pad. For systemic drug treatment, a polyethylene intraperitoneal (i.p.) catheter was surgically implanted to deliver drugs accurately and with minimal manipulation. For cortical drug application artificial cerebrospinal fluid (aCSF) was perfused across the cortex of awake mice at a rate of 2 mL/minute, into a custom-made well with ˜200 μL volume, through tubing with ˜100 μL volume, meaning the entire volume bathing the brain was exchanged approximately every 9 seconds.
Electrophysiological Recordings—In vivo recordings were obtained from layer II somatosensory cortex. […] ISMs of K^+ and NH4^+ were pulled from double-barreled pipette glass (PB150-6, WPI) with a tip of 1-3 μm. The pipettes were silanized (coated) with dimethylsilane I (Fluka, Sigma) and filled with either K^+ ionophore I cocktail B (Fluka, selectivity coefficient −1.8 log(K^+/NH4^+)) or NH4+ ionophore I cocktail B (Fluka, −0.9 log(NH4^+/K^+)). […] Ion-sensitive microelectrode (ISM) signals were amplified (FD223a by WPI), externally filtered and digitized as above, and reference field potential traces were subtracted.
Ion Sensitive Microelectrode (ISM) Fabrication—Ion Sensitive Microelectrodes (ISMs) of K^+ and NH4^+ were pulled from double-barreled pipette glass (PB150-6, WPI) with a tip of 1-3 μm. The pipettes were silanized (coated) with dimethylsilane I (Fluka, Sigma). […] The K^+ ionophore has a selectivity coefficient relative to NH4^+ of −1.8 log (K^+/NH4^+), and the NH4^+ ionophore has a selectivity coefficient relative to K^+ of −0.9 log (NH4^+/K^+). […] The reference barrels were used to record the DC potentials and were filled with 0.15 M NaCl. In selected experiments, single barrel electrodes were also used in combination with single reference electrodes. K^+ and NH4^+ ISM traces were subtracted for interference by calculating the mV response to the increase of the other ion in calibration solutions. All ISMs were calibrated before and after each experiment. […] Calibration data were fitted to the Nikolsky equation to determine electrode slope and interference.

Otc^spf-ash mice [8] = experiment: Automated video analysis of spontaneous mouse movement; type: in vivo; conditions: Otc^spf-ash mice after systemic NH4Cl load 7.5 mmol kg^−1; bumetanide 30 mg kg^−1 i.p.
Method: Otc^spf-ash mice were crossed with Glt-1-eGFP mice for imaging experiments. C57BL/6J mouse and Wistar rat pups were obtained from Jackson Laboratories. To analyze cognitive abilities in OTC mice, two commercial conditioning chambers (H10-11M-TC, Coulbourn Instruments) were adapted for contextual fear conditioning. Over the course of 4 days, mice were trained via a tone/shock protocol and trained to fear contextual and auditory cues. […] Automated movement analysis was performed using AnyMazeTM software analysis of CCD-camera recordings in a standard mouse cage.

pyramidal neurons = experiment: Whole-cell voltage clamp with ramp voltage and GABA application in acute cortical slices (EGABA); type: cell-based, mouse
Description: (§3) Electrophysiological Recordings—In vivo recordings were obtained from layer II somatosensory cortex. In situ recordings were obtained from layer II in coronal cortical slices prepared from P21-30 mice. ISMs of K^+ and NH4^+ were pulled from double-barreled pipette glass (PB150-6, WPI) with a tip of 1-3 μm. The pipettes were silanized (coated) with dimethylsilane I (Fluka, Sigma) and filled with either K^+ ionophore I cocktail B (Fluka, selectivity coefficient −1.8 log(K^+/NH4^+)) or NH4+ ionophore I cocktail B (Fluka, −0.9 log(NH4^+/K^+)). […] Ion-sensitive microelectrode (ISM) signals were amplified (FD223a by WPI), externally filtered and digitized as above, and reference field potential traces were subtracted. […] Recordings were analyzed offline using pClamp 10.2.
(§4) In Situ Electrophysiology—Coronal cortical slices were prepared from P21-30 mice, as described previously. […] All experiments were performed at 32-35° C. […] Whole-cell patch-clamp recordings were done using electrodes with 3-5 M106 resistance, and an intracellular solution containing 135 mM K-methylsulfate, 10 mM KCl, 10 mM hepes, 5 mM NaCl, 2.5 mM Mg-ATP, 0.3 mM Na-GTP (pH 7.3), containing Alexa Fluor® 350 (Invitrogen). Signals were low-pass filtered at 2 kHz and digitized at 10 kHz using Axopatch MultiClamp 700A and Digidata 1320A (Axon Instruments).

Otc^spf-ash mice [9] = experiment: Sensory-motor phenotype score; type: in vivo, mouse; conditions: Otc^spf-ash mice after systemic NH4Cl load 7.5 mmol kg^−1; bumetanide 30 mg kg^−1 i.p.
Method: Mouse movement and seizure activity were omitted from this score, because it was desired that these manifestations be independently and more quantitatively represented. The score thus consisted of four elements: hyperacusis (0-2), imbalance (0-3), ataxia/tremor (0-3) and level of consciousness (0-3). A maximum score of 11 represents deep coma (no corneal reflex) whilst 0 represents normal wakefulness. Each animal was scored after the first 5 minutes and then every 15 minutes as they progressed through the stereotypical stages of ammonia neurotoxicity. […] Ataxia/tremor was scored using a gait test, where the mouse was encouraged to walk for a short distance. […] Consciousness was scored as either 0 for awake, 1 loss of scatter reflex, 2 loss of righting reflex (LORR), 3 loss of corneal reflex.

[10] = Otc^spf-ash mice after 7.5 mmol kg^−1 i.p. ammonia load (baseline 0.32±0.07)
Method: Biochemical and Hemodynamic Analysis—Plasma ammonia analysis was performed on blood samples collected using 50 μL heparinized tubes from the femoral artery. A L-glutamate dehydrogenase based kit (Sigma) was used for the quantification of ammonia in plasma.

cortical slices = conditions: 7 mM ammonia in perfusate
Description: as §3, §4

Otc^spf-ash mice [11] = experiment: Survival after ammonia overdose (Cox regression); type: in vivo, mouse
Method: Where n≧10 for normally distributed data, the unpaired t test or ANOVA were used for independent samples, and paired t test for paired samples. Where n<10 non-parametric tests including Mann-Whitney U and Kruskall-Wallis were used for independent samples, and Wilcoxon signed ranks test for paired samples. Overdose survival was compared using Cox regression model (controlling for the confounding effect of mouse weight).
To test the validity of the present in situ model, awake animals were tested (FIG. 4A). […] To investigate whether this improvement of neuronal function translated into a clinically relevant improvement in disease phenotype, the phenotype measures outlined in FIGS. 1A-1I were employed.

[12] = during cortical KCl application (12.5 mM) ± bumetanide 5 μM
[13] = cortical NH4Cl (10 mM) ± bumetanide
[14] = systemic NH4Cl (7.5 mmol kg^−1) ± bumetanide
[15] = Otc^spf-ash mice, ammonia 7.5 mmol kg^−1 i.p.
[16] = cortical superfusion (NH4Cl 10 mM, BUM 5 μM)
[17] = intraperitoneal injection (NH4Cl 7.5 mmol kg^−1, BUM 30 mg kg^−1)
[18] = after washout of cortical NH4Cl (± bumetanide)
[19] = during cortical NH4Cl application (10 mM) ± bumetanide 5 μM

SMILES | Paired-pulse ratio (PPR) [1, 12] | ME frequency (awake mice; [13]) | ME frequency (awake mice; [14]) | Brain GABA [5, 15] | Brain Glutamate [5, 15] | Brain Glutamine [5, 15] | Brain GABA ([5]; WT mice) | Brain Glutamate ([5]; WT mice) | Brain Glutamine ([5]; WT mice) | [NH4^+]o (Otc^spf-ash mice [7]; [16]) | [NH4^+]o (Otc^spf-ash mice [7]; [17]) | Δ[K^+]o (Otc^spf-ash mice [7]; [17]) | Spontaneous mouse movement (Otc^spf-ash mice [8]) | Sensory-motor phenotype score (out of 11) (Otc^spf-ash mice [9]) | Paired-pulse ratio (PPR) after washout [1, 18] | Paired-pulse ratio (PPR) [1, 19] | other results
[Cl-].[K+] [KCl] | 1.48±0.22 | – | – | – | – | – | – | – | – | – | – | – | – | – | – | – | Paired-pulse ratio (PPR) after washout ([1]; after washout of cortical KCl): 0.63±0.14
N [NH4Cl] | – | 1.02±0.07 ME min^−1 | 2.66±0.14 ME min^−1 | 2.46 ± 0.13 μmol g^−1 wet weight | 13.24 ± 0.33 μmol g^−1 wet weight | 9.25 ± 0.34 μmol g^−1 wet weight | 2.19 ± 0.12 μmol g^−1 wet weight | 12.49 ± 0.15 μmol g^−1 wet weight | 8.69 ± 0.33 μmol g^−1 wet weight | 5.82 ± 0.18 mM | 4.83 ± 0.52 mM | 1.93 ± 0.19 mM | 0.42±0.22 m min^−1 | 9.00±0.46 | 0.61±0.15 | 1.56±0.24 | Depolarizing effect on EGABA (NKCC1 [2]): +1.00±1.07; Depolarizing effect on EGABA (NKCC1 [3]): +11.14±1.22; NKA activity with NH4Cl substituted for KCl (Na^+—K^+-ATPase (NKA); NH4Cl 15 mM, cell-free): able to maintain normal NKA activity; NKA-dependent (ouabain-sensitive) 86Rb^+ uptake (Na^+—K^+-ATPase (NKA); ammonia 0.5-10 mM, cultured astrocytes): dose-dependent reduction; Astrocyte swelling (astrocytes [4]): no significant astrocyte swelling; Transient astrocyte shrinkage (astrocytes [4]): 5.04±0.85%; Astrocyte calcium transient Freq. (astrocytes [6]): 9.03 ± 1.16 Hz cell^−1 × 10^−3; Astrocyte calcium transient Freq. (astrocytes [6]; listed as ammonia): 9.03±1.16 Hz cell^−1 × 10^−3; Astrocyte calcium Cell-cell correlation (astrocytes [6]; awake mice): 0.26 ± 0.08; Astrocyte calcium transient Amplitude (ΔF/F0) (astrocytes [6]; awake mice): 0.47 ± 0.32; Astrocyte calcium transient Duration (astrocytes [6]; awake mice): 21.51 ± 4.55 s; Astrocyte calcium Cell-cell correlation (astrocytes [6]; awake mice, listed as ammonia): 0.26±0.08; Δ[K^+]o (Otc^spf-ash mice [7]; intraperitoneal injection (NH4Cl 7.5 mmol kg^−1, BUM 30 mg kg^−1), listed as ammonia): 1.93 ± 0.19 mM; Depolarization of EGABA (pyramidal neurons; ammonia 7 mM in perfusate, pyramidal neurons, ramp voltage 0 to −120 mV): +12.33±3.66 mV; Extracellular ammonia concentration in plasma [10]: 4.21 ± 0.59 mM; Increase in [K^+]o (cortical slices): 1.88 ± 0.13 mM; Increase in [NH4^+]o (cortical slices): 3.67 ± 0.53 mM
CCCCNc1cc(C(=O)O)cc(S(N)(=O)=O)c1Oc1ccccc1 [bumetanide] | 0.92±0.18 | 0.10±0.02 ME min^−1 | 0.32±0.02 ME min^−1 | 2.39 ± 0.13 μmol g^−1 wet weight | 14.27 ± 0.23 μmol g^−1 wet weight | 8.70 ± 1.54 μmol g^−1 wet weight | 2.55 ± 0.05 μmol g^−1 wet weight | 14.38 ± 0.22 μmol g^−1 wet weight | 4.52 ± 0.18 μmol g^−1 wet weight | 0.52 ± 0.11 mM | 0.42 ± 0.16 mM | 0.0073 ± 0.015 mM | 3.17±0.46 m min^−1 | 6.00±0.72 | 0.59±0.17 | 0.88±0.15 | Survival after ammonia overdose increased by a factor (Otc^spf-ash mice [11]; NH4Cl overdose 10 mmol kg^−1, Otc^spf-ash mice): 3.87; Hazard rate ratio (Otc^spf-ash mice [11]; NH4Cl overdose 10 mmol kg^−1, 95% confidence interval 0.08 to 0.87): 0.26; Effect on ammonia-induced depolarization of EGABA (pyramidal neurons; bumetanide 5 μM pre-incubation): successfully prevented

— US9616075B2, “Method of treating and preventing brain impairment using Na+-K+-2Cl-cotransporter isoform 1 inhibitors” (University of Rochester, priority 2012, dated 2017)
